According to US20050288264A2, “Dosage Regimen and Pharmaceutical Composition for Emergency Contraception” (priority 2001, published 2005):
Where two headings read alike, the source gives them in different places.

Type: in vivo, women
Protocol: The efficacy of the regimen according to this invention was compared with the known regimen administering 0.75-0.75 mg of levonorgestrel 12 hours apart in the following trials.
In a double-blind, randomized, multicentre, multinational trial 1,356 women received 0.75-0.75 mg of levonorgestrel at 12-hour interval in the traditional way, while 1,356 received in a single dose 1.5 ± 0.2 mg of levonorgestrel within 72 hours of the unprotected coitus.
The incidence of vomiting was 1.4% in both groups. As the new regimen also has the advantageous properties resulting from the lack of the estrogen component, the incidence of nausea, feeling of sickness, vomiting was apparently low.
The incidence of menstrual disorders was not increased either by the single administration of 1.5 mg dose of levonorgestrel compared to the administration of two 0.75 mg doses. The incidence of menstrual disorders was 30.9% in both groups.

In the case of C#C[C@]1(O)CC[C@H]2[C@@H]3CCC4=CC(=O)CC[C@@H]4[C@H]3CC[C@@]21CC [levonorgestrel], the “Prevented fraction (percent of conception which otherwise might happen prevented by the treatment)” value (0.75-0.75 mg at 12-hour interval (traditional way)) is reported as 77.3%, the conception rate (0.75-0.75 mg at 12-hour interval (traditional way), within 72 hours of unprotected coitus, 1,356 women) is reported as 1.77% and the “incidence of other side-effects (diarrhoea, fatigue, dizziness, headache, breast tenderness, lower abdominal pain)” value (in vivo) is reported as “not differing significantly”. The “Prevented fraction (percent of conception which otherwise might happen prevented by the treatment)” value (single dose 1.5 ± 0.2 mg) was 81.9% and the conception rate (single dose 1.5 ± 0.2 mg within 72 hours of unprotected coitus, 1,356 women) was 1.47%.
